Measured values as given in paper PMC7179183, “Design of Biphenyl-Substituted Diarylpyrimidines with a Cyanomethyl Linker as HIV-1 NNRTIs via a Molecular Hybridization Strategy” (Molecules, 2020).
Read-outs that look alike come from different tables or passages of the source.

Legend:
[1] = test system: WT HIV-1 (strain IIIB); assay: microbe, parasite or virus in culture; format: cell-based
Protocol: (§1) The newly synthesized compounds were evaluated for their potency and cytotoxicity against the WT HIV-1 (strain IIIB) in MT-4 cells using the MTT method. The biological evaluation results are represented as EC50 values (anti-HIV-1 activity), CC50 values (cytotoxicity), and SI values (selectivity index, CC50/EC50 ratio).

[2] = test system: MT-4 cells; assay: Cytotoxicity in uninfected MT-4 cells, MTT method; format: cell-based; settings: uninfected MT-4 cells; viability reduced by 50%
Protocol: as §1

[3] = test system: L100I mutant HIV-1 strain; assay: Anti-HIV-1 activity against L100I mutant strain in MT-4 cells; format: cell-based
[4] = test system: E138K mutant HIV-1 strain; assay: Anti-HIV-1 activity against E138K mutant strain in MT-4 cells; format: cell-based
[5] = test system: Y181C mutant HIV-1 strain; assay: Anti-HIV-1 activity against Y181C mutant strain in MT-4 cells; format: cell-based
[6] = test system: K103N mutant HIV-1 strain; assay: Anti-HIV-1 activity against K103N mutant strain in MT-4 cells; format: cell-based
[7] = test system: Y188L mutant HIV-1 strain; assay: Anti-HIV-1 activity against Y188L mutant strain in MT-4 cells; format: cell-based
[8] = test system: F227L + V106A double RT mutant HIV-1 strain; assay: Anti-HIV-1 activity against F227L + V106A double mutant strain in MT-4 cells; format: cell-based
[9] = test system: K103N + Y181C double RT mutant HIV-1 strain; assay: Anti-HIV-1 activity against K103N + Y181C double mutant strain in MT-4 cells; format: cell-based
[10] = biological target: WT HIV-1 RT (Human immunodeficiency virus type 1 group M subtype B, UniProt P03366); assay: Enzymatic assay against WT HIV-1 RT; settings: read-out: IC50 WT HIV-1 RT polymerase activity
Protocol: The enzymatic assay against WT HIV-1 RT was conducted for most compounds (Table 2).

[11] = test system: WT HIV-1; settings: cited from earlier work
[12] = cited from earlier work
[13] = Cytotoxicity in uninfected MT-4 cells, MTT method; format: cell-based; settings: human
Protocol: as §1

[14] = MT-4 cells, protection against virus-induced cytopathicity by 50%, mean of at least three experiments, read-out: EC50 HIV-1 IIIB
[15] = MT-4 cells, read-out: EC50 L100I
[16] = MT-4 cells, read-out: EC50 E138K
[17] = MT-4 cells, read-out: EC50 Y181C
[18] = MT-4 cells, read-out: EC50 K103N
[19] = MT-4 cells, read-out: EC50 Y188L
[20] = MT-4 cells, read-out: EC50 F227L + V106A
[21] = MT-4 cells, read-out: EC50 K103N + Y181C
[22] = Human immunodeficiency virus 1, IIIB, MT4, MT-4 cells, protection against virus-induced cytopathicity by 50%, mean of at least three experiments, read-out: EC50 HIV-1 IIIB
[23] = Human immunodeficiency virus 1, MT4, read-out: EC50 L100I
[24] = Human immunodeficiency virus 1, MT4, read-out: EC50 E138K
[25] = Human immunodeficiency virus 1, MT4, read-out: EC50 Y181C
[26] = Human immunodeficiency virus 1, MT4, read-out: EC50 K103N
[27] = Human immunodeficiency virus 1, MT4, read-out: EC50 Y188L
[28] = Human immunodeficiency virus 1, MT4, read-out: EC50 F227L + V106A
[29] = Human immunodeficiency virus 1, MT4, read-out: EC50 K103N + Y181C
[30] = uninfected MT-4 cells, viability reduced by 50%, read-out: CC50
[31] = statement in the introduction, no reference given

N#Cc1ccc(Nc2nccc(C(C#N)c3ccc(-c4cccc(F)c4)cc3F)n2)cc1 (racemic) [Compound 10k, (±)-4-((4-(cyano(3,3′-difluoro-[1,1′-biphenyl]-4-yl)methyl)pyrimidin-2-yl)amino)benzonitrile]
EC50 [1, 14]: 560 ± 190 nM
CC50 [2]: 30700 ± 1790 nM
EC50 [3, 15]: 9290 ± 570 nM
EC50 [4, 16]: 3360 ± 400 nM
EC50 [5, 17]: 9150 ± 870 nM
EC50 [6, 18]: > 30700 nM
EC50 [7, 19]: > 30700 nM
EC50 [8, 20]: > 30700 nM
EC50 [9, 21]: > 30700 nM
IC50 [10]: 188 ± 172 nM

N#Cc1ccc(Nc2nccc(C(C#N)c3ccc(-c4ccccc4Cl)cc3F)n2)cc1 (racemic) [Compound 10m, (±)-4-((4-((2′-chloro-3-fluoro-[1,1′-biphenyl]-4-yl)(cyano)methyl)pyrimidin-2-yl)amino)benzonitrile]
EC50 [1, 14]: 280 ± 40 nM
CC50 [2]: 22500 ± 4700 nM
EC50 [3, 15]: 5610 ± 1510 nM
EC50 [4, 16]: 2430 ± 500 nM
EC50 [5, 17]: 4530 ± 1470 nM
EC50 [6, 18]: 5340 ± 930 nM
EC50 [7, 19]: > 22500 nM
EC50 [8, 20]: > 22500 nM
EC50 [9, 21]: > 22500 nM
IC50 [10]: 74 ± 24 nM

Cc1cc(C(C#N)c2ccccc2F)nc(Nc2ccc(C#N)cc2)n1 (stereo not shown) [Compound 1]
EC50 ([11]; read-out: EC50 anti-HIV potency): 1.8 nM

Cc1cc(-c2ccc(C#N)cc2)cc(C)c1Nc1ccnc(Nc2ccc(C#N)cc2)n1 [Compound 2]
EC50 ([11]; read-out: EC50 WT HIV-1): 1 ± 0.6 nM
CC50 ([12]; lead compound): 2100 nM

Nc1ccn([C@@H]2CS[C@H](CO)O2)c(=O)n1 [Compound 3TC, lamivudine, reference compound]
EC50 [1, 22]: 7880 ± 3150 nM
CC50 [13]: > 87200 nM
EC50 [3, 23]: 1960 ± 290 nM
EC50 [4, 24]: 5060 ± 900 nM
EC50 [5, 25]: 4740 ± 1310 nM
EC50 [6, 26]: 3980 ± 760 nM
EC50 [7, 27]: 3420 ± 950 nM
EC50 [8, 28]: 2690 ± 870 nM
EC50 [9, 29]: 5500 ± 1310 nM

Cc1cc(C#N)cc(C)c1Oc1nc(Nc2ccc(C#N)cc2)nc(N)c1Br [ETR, etravirine, reference compound]
EC50 ([1]; Human immunodeficiency virus 1, MT4, read-out: EC50 HIV-1 IIIB): 4.5 ± 1 nM
CC50 [13, 30]: > 4600 nM
EC50 [3, 23]: 8 ± 2 nM
EC50 [4, 24]: 8 ± 4 nM
EC50 [5, 25]: 17 ± 3 nM
EC50 [6, 26]: 3 ± 1 nM
EC50 [7, 27]: 17 ± 6 nM
EC50 [8, 28]: 14 ± 5 nM
EC50 [9, 29]: 40 ± 10 nM
CC50 [12, 31]: ~6000 nM

Cc1ccnc2c1NC(=O)c1cccnc1N2C1CC1 [NVP, nevirapine, reference compound]
EC50 [1, 22]: 200 ± 100 nM
CC50 [13, 30]: > 15000 nM
EC50 [3, 23]: 980 ± 390 nM
EC50 [4, 24]: 200 ± 150 nM
EC50 [5, 25]: 6070 ± 1550 nM
EC50 [6, 26]: 4700 ± 630 nM
EC50 [7, 27]: ≥ 4620 nM
EC50 [8, 28]: ≥ 4280 nM
EC50 [9, 29]: > 15000 nM

Cc1cc(/C=C/C#N)cc(C)c1Nc1ccnc(Nc2ccc(C#N)cc2)n1 [RPV, rilpivirine, reference compound]
EC50 [1, 22]: 1.6 ± 0.3 nM
CC50 [13, 30]: 5890 ± 310 nM
EC50 [3, 23]: 2 ± 1 nM
EC50 [4, 24]: 3 ± 1 nM
EC50 [5, 25]: 3 ± 1 nM
EC50 [6, 26]: 1 ± 0.2 nM
EC50 [7, 27]: 30 ± 9 nM
EC50 [8, 28]: 44 ± 12 nM
EC50 [9, 29]: 9 ± 2 nM
CC50 [12, 31]: ~6000 nM
